Source: patent publication US10011627B2, “C-aryl glucoside derivative, preparation methods thereof, and medical applications thereof” (YOUNGENE THERAPEUTICS CO., LTD, priority 2013, dated 2018)

Key:
SGLT2 = SGLT2 (Homo sapiens (Human), UniProt P31639); assay: Activity assay of SGLT2: [14C] methyl α-D-glucopyranoside uptake in SGLT2 transiently transferred HEK293 cells; assay type: cell-based; details: 2 hours at 37° C.
Protocol: (§1) Activity Assay of SGLT1 and SGLT2:
(§2) The following method was used to determine the inhibitory activity of the compounds of the present invention on SGLT1 and SGLT2. The experimental method is summarized as follows:
(§3) SGLT1 and SGLT2 transiently transferred HEK293 cells (prepared according to the existing literature “Diabetes, 57, 1723-1729, 2008”, wherein cDNA of SGLT1 and SGLT2 was purchased from Origene company) were seeded in a 96-well plate. The density of the cells was 1-1.5×10^4. The cells were cultured at 37° C. and 5% CO2 for 48 hours, and then washed twice with 200 μL sodium-free buffer. 90 μL sodium-containing buffer of the test compound at different concentrations was added to the well. Each test compound was repeated in three wells for each concentration. The cells were cultured at 37° C. for 15 minutes, then 10 μL (in number 0.1 μCi [^14C]) Methyl α-D-glucopyranoside was added to each well of the 96-well plate. The cells were further cultured at 37° C. for 2 hours, then the supernatant was discarded. The cells were washed twice with pre-chilled sodium-free buffer and then dissolved in 100 μL NaOH (200 mM). 100 μL scintillation solution was added, and mixed well. Scintiloscope was used for the quantitative detection of ^14C.
(§4) IC50 values of the compounds of various examples were calculated from the […] at different concentrations.

SGLT1 = SGLT1 (Homo sapiens (Human), UniProt P13866); assay: Activity assay of SGLT1: [14C] methyl α-D-glucopyranoside uptake in SGLT1 transiently transferred HEK293 cells; assay type: cell-based; details: for IC50: SGLT1 transiently transferred HEK293 cells, [14C] methyl α-D-glucopyranoside, 2 hours at 37° C.; for inhibition of SGLT1 (conclusion in words): conclusion from the IC50 table
Protocol: as §1, §2, §3, §4

Chain of SGLT1 (P13866 whole entry, species assumed): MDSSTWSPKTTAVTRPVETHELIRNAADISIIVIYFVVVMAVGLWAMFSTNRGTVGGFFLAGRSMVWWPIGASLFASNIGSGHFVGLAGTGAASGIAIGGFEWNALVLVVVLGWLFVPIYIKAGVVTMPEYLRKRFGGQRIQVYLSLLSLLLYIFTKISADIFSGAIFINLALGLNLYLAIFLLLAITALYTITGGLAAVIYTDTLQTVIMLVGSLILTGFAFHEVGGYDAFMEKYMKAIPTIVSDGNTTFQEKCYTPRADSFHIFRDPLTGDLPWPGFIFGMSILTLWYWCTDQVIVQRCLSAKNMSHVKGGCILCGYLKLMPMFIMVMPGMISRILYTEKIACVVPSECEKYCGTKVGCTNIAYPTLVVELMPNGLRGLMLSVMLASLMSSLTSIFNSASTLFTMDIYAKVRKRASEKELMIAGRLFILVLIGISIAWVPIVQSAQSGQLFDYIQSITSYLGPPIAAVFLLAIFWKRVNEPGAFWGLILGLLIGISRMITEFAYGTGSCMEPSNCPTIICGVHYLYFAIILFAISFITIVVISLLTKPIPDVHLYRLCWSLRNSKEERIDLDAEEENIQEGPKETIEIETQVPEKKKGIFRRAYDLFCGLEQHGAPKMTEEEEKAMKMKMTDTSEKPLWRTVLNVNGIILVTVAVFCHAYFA
Chain of SGLT2 (P31639 whole entry, species assumed): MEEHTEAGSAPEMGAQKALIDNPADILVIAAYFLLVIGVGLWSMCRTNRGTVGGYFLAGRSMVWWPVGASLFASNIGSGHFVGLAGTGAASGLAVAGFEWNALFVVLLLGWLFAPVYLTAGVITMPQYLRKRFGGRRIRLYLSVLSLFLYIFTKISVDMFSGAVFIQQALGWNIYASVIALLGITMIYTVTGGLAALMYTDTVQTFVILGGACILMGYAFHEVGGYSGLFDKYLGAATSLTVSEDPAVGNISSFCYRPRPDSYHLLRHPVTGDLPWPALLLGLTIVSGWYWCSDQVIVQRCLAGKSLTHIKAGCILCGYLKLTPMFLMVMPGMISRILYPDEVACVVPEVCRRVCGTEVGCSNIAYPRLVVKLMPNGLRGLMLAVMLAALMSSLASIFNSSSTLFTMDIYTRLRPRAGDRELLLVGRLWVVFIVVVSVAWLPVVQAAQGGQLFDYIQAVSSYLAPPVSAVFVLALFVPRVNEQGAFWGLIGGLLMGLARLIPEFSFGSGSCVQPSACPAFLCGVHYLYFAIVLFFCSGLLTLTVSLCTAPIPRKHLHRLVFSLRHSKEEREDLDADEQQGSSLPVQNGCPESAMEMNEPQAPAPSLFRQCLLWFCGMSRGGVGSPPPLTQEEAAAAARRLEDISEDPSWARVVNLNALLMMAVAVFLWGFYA

## OC[C@@]12CO[C@@](c3ccc(Cl)c(Cc4ccc5c(c4)OCCO5)c3)(O1)[C@H](O)[C@@H](O)[C@@H]2O [Example 1, (1S,2S,3S,4R,5S)-5-(4-chloro-3-((2,3-dihydrobenzo[b][1,4]dioxin-6-yl)methyl)phenyl)-1-(hydroxymethyl)-6,8-dioxabicyclo[3.2.1]octane-2,3,4-triol]
SGLT2
  IC50: 0.00058 µM
SGLT1
  IC50: 0.953 µM

## OC[C@@]12CO[C@@](c3ccc(C4CC4)c(Cc4ccc5c(c4)OCCO5)c3)(O1)[C@H](O)[C@@H](O)[C@@H]2O [Example 2, (1S,2S,3S,4R,5S)-5-(4-cyclopropyl-3-((2,3-dihydrobenzo[b][1,4]dioxin-6-yl)methyl)phenyl)-1-(hydroxymethyl)-6,8-dioxabicyclo[3.2.1]octane-2,3,4-triol]
SGLT2
  IC50: 0.00367 µM
SGLT1
  IC50: 0.0157 µM
  inhibition of SGLT1 (conclusion in words): inhibited SGLT1

## OC[C@H]1S[C@@H](c2cc3c(c(Cc4ccc5c(c4)OCCO5)c2)OCC3)[C@H](O)[C@@H](O)[C@@H]1O [Example 3, (2S,3R,4R,5S,6R)-2-(7-((2,3-dihydrobenzo[b][1,4]dioxin-6-yl)methyl)-2,3-dihydrobenzofuran-5-yl)-6-(hydroxymethyl)tetrahydro-2H-thiopyran-3,4,5-triol]
SGLT2
  IC50: 0.0198 µM
SGLT1
  IC50: 2.56 µM

## Cc1ccc([C@@H]2S[C@H](CO)[C@@H](O)[C@H](O)[C@H]2O)cc1Cc1ccc2c(c1)OCCO2 [Example 4, (2S,3R,4R,5S,6R)-2-(3-((2,3-dihydrobenzo[b][1,4]dioxin-6-yl)methyl)-4-methylphenyl)-6-(hydroxymethyl)tetrahydro-2H-thiopyran-3,4,5-triol]
SGLT2
  IC50: 0.132 µM
SGLT1
  IC50: 0.089 µM
  inhibition of SGLT1 (conclusion in words): inhibited SGLT1

## CCCc1ccc([C@]23OC[C@](CO)(O2)[C@@H](O)[C@H](O)[C@H]3O)cc1Cc1ccc2c(c1)OCCO2 [Example 7, (1S,2S,3S,4R,5S)-5-(3-((2,3-dihydrobenzo[b][1,4]dioxin-6-yl)methyl)-4-propylphenyl)-1-(hydroxymethyl)-6,8-dioxabicyclo[3.2.1]octane-2,3,4-triol]
SGLT2
  IC50: 0.00182 µM
SGLT1
  IC50: 0.0172 µM
  inhibition of SGLT1 (conclusion in words): inhibited SGLT1

## Cc1ccc([C@]23OC[C@](CO)(O2)[C@@H](O)[C@H](O)[C@H]3O)cc1Cc1ccc2c(c1)OCCO2 [Example 8, (1S,2S,3S,4R,5S)-5-(3-((2,3-dihydrobenzo[b][1,4]dioxin-6-yl)methyl)-4-methylphenyl)-1-(hydroxymethyl)-6,8-dioxabicyclo[3.2.1]octane-2,3,4-triol]
SGLT2
  IC50: 0.583 µM
SGLT1
  IC50: 0.00121 µM

## CCc1ccc([C@]23OC[C@](CO)(O2)[C@@H](O)[C@H](O)[C@H]3O)cc1Cc1ccc2c(c1)OCCO2 [Example 9, (1S,2S,3S,4R,5S)-5-(3-((2,3-dihydrobenzo[b][1,4]dioxin-6-yl)methyl)-4-ethylphenyl)-1-(hydroxymethyl)-6,8-dioxabicyclo[3.2.1]octane-2,3,4-triol]
SGLT2
  IC50: 0.00149 µM
SGLT1
  IC50: 0.0166 µM
  inhibition of SGLT1 (conclusion in words): inhibited SGLT1
